# Assay results from patent US11524966B1 (Valo Early Discovery, Inc., priority 2017, dated 2022).
# Target: T1, USP28 (USP28-5(1-1077)-TEV-6*His; LifeSensors) (Homo sapiens, UniProt Q96RU2)
# T1 construct: construct USP28 (USP28-5(1-1077)-TEV-6*His; LifeSensors); TEV cleavage site (C); 6xHis (C); purchased LifeSensors
# T1 sequence (Q96RU2 1-1077): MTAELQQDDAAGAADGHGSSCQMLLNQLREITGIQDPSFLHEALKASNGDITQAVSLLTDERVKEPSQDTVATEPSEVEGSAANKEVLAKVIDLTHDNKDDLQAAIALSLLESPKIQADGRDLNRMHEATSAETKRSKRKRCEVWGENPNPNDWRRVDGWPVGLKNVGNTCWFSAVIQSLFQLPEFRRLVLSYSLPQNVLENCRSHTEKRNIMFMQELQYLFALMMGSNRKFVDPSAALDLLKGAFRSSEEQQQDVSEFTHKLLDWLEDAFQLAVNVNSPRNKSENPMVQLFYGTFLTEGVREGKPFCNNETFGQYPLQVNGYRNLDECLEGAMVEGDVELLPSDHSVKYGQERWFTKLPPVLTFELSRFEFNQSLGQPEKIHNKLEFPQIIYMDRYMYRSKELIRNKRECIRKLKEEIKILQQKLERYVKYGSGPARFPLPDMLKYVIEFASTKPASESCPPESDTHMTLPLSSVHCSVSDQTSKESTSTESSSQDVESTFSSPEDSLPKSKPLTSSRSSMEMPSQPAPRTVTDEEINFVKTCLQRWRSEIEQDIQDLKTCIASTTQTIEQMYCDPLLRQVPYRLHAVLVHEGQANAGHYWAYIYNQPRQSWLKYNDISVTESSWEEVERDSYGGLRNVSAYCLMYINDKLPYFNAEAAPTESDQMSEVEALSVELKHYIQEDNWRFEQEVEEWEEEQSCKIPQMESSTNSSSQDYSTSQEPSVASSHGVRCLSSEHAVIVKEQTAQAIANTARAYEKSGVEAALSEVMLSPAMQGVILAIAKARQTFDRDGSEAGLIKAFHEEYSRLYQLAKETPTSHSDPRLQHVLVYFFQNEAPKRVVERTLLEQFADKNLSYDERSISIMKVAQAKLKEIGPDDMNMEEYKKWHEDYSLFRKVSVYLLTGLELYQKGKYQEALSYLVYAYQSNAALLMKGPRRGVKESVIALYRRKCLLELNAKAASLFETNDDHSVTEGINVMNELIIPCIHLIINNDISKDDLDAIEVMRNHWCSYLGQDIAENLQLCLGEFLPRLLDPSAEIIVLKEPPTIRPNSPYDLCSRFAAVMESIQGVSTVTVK
# Experiment: Ubiquitin-Rhodamine 110 Assay for USP28 Activity, Example A-1(b)
# Type: biochemical
# Settings: Ubiquitin-Rhodamine 110 assay, Example A-1(b)
# Method in brief: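 Single-point screening used 10 μM compound with 90 min room-temperature incubation; follow-up dose-responses (25 μM top, 3-fold) used 75 pM USP28 1-1077 construct, 30 min compound preincubation, 25 nM Ub-Rh110, 20 min reaction, citric acid quench. Rh110 fluorescence normalised to no-enzyme and DMSO controls; IC50 from 4-parameter logistic fit.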
row,Structure (SMILES),USP28 A-1(b) IC50 range
1,"Cc1ccc2c(N)c(C(=O)N[C@H]3COc4cc(N5C[C@@H](N)[C@@H](F)C5)ccc4C3)sc2n1 (single isomer, unassigned) [Example 3-5]",+++ (0.05-0.2 μM)
2,"Cc1ccc2c(N)c(C(=O)N[C@H]3COc4cc(N5C[C@@H](F)[C@@H](N)C5)ccc4C3)sc2n1 (single isomer, unassigned) [Example 3-6]",++ (0.2-2 μM)
